Where two headings read alike, the source gives them in different places.
How the values were obtained:
[1] = Chlorinated DNAPL dissolution experiments with Citrus Burst-3; type: physicochemical; settings: water, thermodynamic from solid, in presence of chlorinated DNAPL, without cosolvent-surfactant, 25° C., read-out: Observed Solubility in Control Sample
Text: In order to test the treatment of chlorinated compounds, a chlorinated solvent DNAPL was obtained from a site consisting of chlorinated solvents and chlorinated semi-volatile compounds. Composition of the chlorinated solvent DNAPL is presented based on determinations using USEPA Methods 8260 and 8270.
Carbon tetrachloride and tetrachloroethylene comprised more than 87 percent of the DNAPL. Being a saturated compound, carbon tetrachloride is generally a pervasive and difficult to degrade compound once introduced to the subsurface.

[2] = cited from earlier work
[3] = cited from earlier work; remark: listed apart in the source

Row | Structure (SMILES) | log Kow ([2]; Table 5) | Pure Compound Aqueous Solubility [3] | log Kow ([2]; Table 2) | further results
1 | ClC(Cl)(Cl)Cl [Carbon Tetrachloride (CTC), Carbon Tetrachloride] | 2.83 | 129 µg/mL | – | solubility at 48 h [1]: 100 µg/mL
2 | Cc1ccc2ccccc2c1 [2-Methylnaphthalene] | – | – | 3.9 | –
3 | Cc1ccc(C)c(C)c1 [1,2,4-Trimethybenzene] | – | – | 3.7 | –
4 | ClC(Cl)=C(Cl)C(Cl)=C(Cl)Cl [Hexachlorobutadiene (HCBD), Hexachlorobutadiene] | 4.90 | – | – | –
5 | CCc1ccccc1 [Ethylbenzene] | – | – | 3.1 | –
6 | Clc1c(Cl)c(Cl)c2c(Cl)c(Cl)c(Cl)c(Cl)c2c1Cl [Octachloronaphthalene (OCN), Octachloronaphthalene] | – | insoluble | – | –

Source: US9895730B2, “Method for extraction and surfactant enhanced subsurface contaminant recovery” (priority 2007, dated 2018)
